{"source": "BindingDB's records for doi:10.1016/s0960-894x(03)00792-3", "about": "(Eli Lilly, 2003)", "data": [{"biological_target": "cAMP-dependent protein kinase catalytic subunit alpha (Bos taurus, UniProt P00517)", "test": "CDK Kinase Inhibition Assay", "details": "25 °C", "units": {"IC50": "µM"}, "values": [{"compound": "Cn1cc(C2=C(c3cn(CC(O)CO)c4ccccc34)C(=O)NC2=O)c2ccccc21", "note": "(stereo unspecified) [3-[1-(2,3-dihydroxypropyl)-1H-indol-3-yl]-4-(1-methyl-1H-indol-3-yl)-2,5-dihydro-1H-pyrrole-2,5-dione]", "IC50": "> 20"}, {"compound": "CN(C)CCCn1cc(C2=C(c3c[nH]c4ccccc34)C(=O)NC2=O)c2ccccc21", "note": "[2-[1-(3-dimethylaminopropyl)-indol-3-yl]-3-(indol-3-yl)maleimide]", "IC50": "> 20"}, {"compound": "O=C1NC(=O)c2c1c1c3ccccc3[nH]c1c1c2c2ccccc2n1CCCO", "note": "[3-(3-hydroxypropyl)-3,13,23-triazahexacyclo[14.7.0.0^{2,10}.0^{4,9}.0^{11,15}.0^{17,22}]tricosa-1(16),2(10),4(9),5,7,11(15),17(22),18,20-nonaene-12,14-dione]", "IC50": "> 20"}, {"compound": "COc1ccc2c(c1)[nH]c1c3[nH]c4cc(OC)ccc4c3c3c(c21)C(=O)NC3=O", "note": "[6,20-dimethoxy-3,13,23-triazahexacyclo[14.7.0.0^{2,10}.0^{4,9}.0^{11,15}.0^{17,22}]tricosa-1(16),2(10),4(9),5,7,11(15),17(22),18,20-nonaene-12,14-dione]", "IC50": "> 20"}, {"compound": "O=C1NC(=O)c2c1c1c3ccccc3[nH]c1c1[nH]c3ccccc3c21", "note": "[6,7,12,13-Tetrahydro-5,7-dioxo-5H-indolo[2,3-a]pyrrolo[3,4-c]carbazole]", "IC50": "> 20"}, {"compound": "Cn1c2ccccc2c2c3c(c4c5ccc(F)cc5[nH]c4c21)C(=O)NC3=O", "note": "[indolocarbazole deriv. 4(h)]", "IC50": "> 20"}, {"compound": "Cn1c2ccccc2c2c3c(c4c5ccc(Br)cc5[nH]c4c21)C(=O)NC3=O", "note": "[indolocarbazole deriv. 4(f)]", "IC50": "> 20"}, {"compound": "Cn1c2ccccc2c2c3c(c4c5ccccc5[nH]c4c21)C(=O)NC3=O", "note": "[3-methyl-3,13,23-triazahexacyclo[14.7.0.0^{2,10}.0^{4,9}.0^{11,15}.0^{17,22}]tricosa-1(16),2(10),4(9),5,7,11(15),17(22),18,20-nonaene-12,14-dione]", "IC50": "> 20"}, {"compound": "Cn1cc(C2=C(c3cn(C)c4ccccc34)C(=O)NC2=O)c2ccccc21", "note": "[3,4-bis(1-methyl-1H-indol-3-yl)-2,5-dihydro-1H-pyrrole-2,5-dione]", "IC50": "> 20"}]}, {"biological_target": "Cyclin-dependent kinase 4/G1/S-specific cyclin-D1 (Homo sapiens, UniProt P11802)", "sequence (P11802 whole entry)": "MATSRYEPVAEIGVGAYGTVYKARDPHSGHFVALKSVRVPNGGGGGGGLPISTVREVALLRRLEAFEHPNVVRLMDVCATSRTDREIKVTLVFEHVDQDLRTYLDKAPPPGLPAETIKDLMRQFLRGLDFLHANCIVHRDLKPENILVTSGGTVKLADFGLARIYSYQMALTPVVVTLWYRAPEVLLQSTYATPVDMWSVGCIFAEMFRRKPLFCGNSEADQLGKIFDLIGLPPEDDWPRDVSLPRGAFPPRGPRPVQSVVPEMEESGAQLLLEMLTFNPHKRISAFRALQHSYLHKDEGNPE", "sequence (P24385 whole entry, further chain)": "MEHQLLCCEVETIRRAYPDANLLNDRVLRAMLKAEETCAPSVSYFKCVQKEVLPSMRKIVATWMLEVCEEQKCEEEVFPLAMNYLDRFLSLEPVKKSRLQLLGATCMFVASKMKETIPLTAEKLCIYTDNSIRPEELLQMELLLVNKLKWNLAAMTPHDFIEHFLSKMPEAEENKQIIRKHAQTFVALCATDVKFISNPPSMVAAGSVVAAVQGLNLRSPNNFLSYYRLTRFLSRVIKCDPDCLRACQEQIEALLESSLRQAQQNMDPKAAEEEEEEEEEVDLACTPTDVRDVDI", "test": "CDK Kinase Inhibition Assay", "details": "pH 7; 22 °C", "units": {"IC50": "µM"}, "values": [{"compound": "COC(=O)[C@@]1(O)C[C@H]2O[C@]1(C)n1c3ccccc3c3c4c(c5c6ccccc6n2c5c31)C(=O)NC4", "IC50": 0.03}, {"compound": "O=C1NC(=O)c2c1c1c3ccccc3n3c1c1c2c2ccccc2n1[C@H]1CC[C@@H]3O1", "note": "[28-oxa-4,14,19-triazaoctacyclo[12.11.2.1^{15,18}.0^{2,6}.0^{7,27}.0^{8,13}.0^{19,26}.0^{20,25}]octacosa-1(26),2(6),7(27),8(13),9,11,20(25),21,23-nonaene-3,5-dione]", "IC50": 0.54}]}]}
